System: MV-4-11 cells
Assay: Gene expression microarray analysis (Affymetrix PrimeView) and GSEA
Type: cell-based, human
Set-up: RFU PODN (11730768_x_at) / Fold change /veh PODN (11730768_x_at) / RFU LINC00158 (11744669_a_at) / Fold change /veh LINC00158 (11744669_a_at) / RFU DUSP10 (11751237_a_at) / Fold change /veh DUSP10 (11751237_a_at) / RFU ID3 (11757404_x_at) / Fold change /veh ID3 (11757404_x_at) / RFU PLEKHG5 (11737974_s_at) / Fold change /veh PLEKHG5 (11737974_s_at) / RFU LRRC4B (11730491_at) / Fold change /veh LRRC4B (11730491_at) / RFU GIMAP4 (11747438_a_at) / Fold change /veh GIMAP4 (11747438_a_at) / RFU KRT8 (11758183_x_at) / Fold change /veh KRT8 (11758183_x_at) / RFU CNN1 (11734310_a_at) / Fold change /veh CNN1 (11734310_a_at) / RFU VPS37D (11726825_at) / Fold change /veh VPS37D (11726825_at) / RFU C10orf10 (11716522_x_at) / Fold change /veh C10orf10 (11716522_x_at) / RFU KIR2DL2 /// KIR2DL4 /// KIR2DL5A /// KIR2DL5B /// KIR2DS1 /// KIR2DS2 /// KIR2DS3 /// KIR2DS4 /// KIR3DL3 /// KIR3DL3 /// KIR3DS1 (11738374_at) / Fold change /veh KIR2DL2 /// KIR2DL4 /// KIR2DL5A /// KIR2DL5B /// KIR2DS1 /// KIR2DS2 /// KIR2DS3 /// KIR2DS4 /// KIR3DL3 /// KIR3DL3 /// KIR3DS1 (11738374_at) / RFU C1QL1 (11718748_at) / Fold change /veh C1QL1 (11718748_at) / RFU TMPRSS4 (11747572_a_at) / Fold change /veh TMPRSS4 (11747572_a_at) / RFU HAMP (11756126_x_at) / Fold change /veh HAMP (11756126_x_at) / RFU RNFT2 (11725882_a_at) / Fold change /veh RNFT2 (11725882_a_at) / RFU NR4A2 (11747474_a_at) / Fold change /veh NR4A2 (11747474_a_at) / RFU ABCC12 (11746883_a_at) / Fold change /veh ABCC12 (11746883_a_at) / RFU TMEM136 (11760407_x_at) / Fold change /veh TMEM136 (11760407_x_at) / RFU CLDN22 /// WWC2 (11732394_at) / Fold change /veh CLDN22 /// WWC2 (11732394_at) / RFU HLA-DPB1 (11760878_x_at) / Fold change /veh HLA-DPB1 (11760878_x_at) / RFU SPINT1 (11716480_a_at) / Fold change /veh SPINT1 (11716480_a_at) / RFU GAP43 (11754022_s_at) / Fold change /veh GAP43 (11754022_s_at) / RFU A4GNT (11735810_at) / Fold change /veh A4GNT (11735810_at) / RFU PRB3 (11715151_x_at) / Fold change /veh PRB3 (11715151_x_at) / RFU TUBB4B (11761932_at) / Fold change /veh TUBB4B (11761932_at) / RFU CAPN14 (11732068_a_at) / Fold change /veh CAPN14 (11732068_a_at) / RFU TMCC2 (11721928_a_at) / Fold change /veh TMCC2 (11721928_a_at) / RFU IRGQ (11745062_a_at) / Fold change /veh IRGQ (11745062_a_at) / RFU FAM174B (11720279_a_at) / Fold change /veh FAM174B (11720279_a_at) / RFU TMPRSS4 (11748680_a_at) / Fold change /veh TMPRSS4 (11748680_a_at) / RFU FAM212B (11763350_a_at) / Fold change /veh FAM212B (11763350_a_at) / RFU PLEKHG5 (11743358_a_at) / Fold change /veh PLEKHG5 (11743358_a_at) / RFU ZSCAN30 (11745921_a_at) / Fold change /veh ZSCAN30 (11745921_a_at) / RFU CMKLR1 (11741424_a_at) / Fold change /veh CMKLR1 (11741424_a_at) / RFU LOC101060620 /// MAPK8IP1 (11723275_at) / Fold change /veh LOC101060620 /// MAPK8IP1 (11723275_at) / RFU SPTSSB (11747773_x_at) / Fold change /veh SPTSSB (11747773_x_at) / RFU PRSS12 (11739890_at) / Fold change /veh PRSS12 (11739890_at) / RFU BIN1 (11741810_x_at) / Fold change /veh BIN1 (11741810_x_at) / RFU WNT11 (11732464_a_at) / Fold change /veh WNT11 (11732464_a_at) / RFU C10orf10 (11716521_a_at) / Fold change /veh C10orf10 (11716521_a_at) / RFU C5orf56 (11738089_at) / Fold change /veh C5orf56 (11738089_at) / RFU CYB561 (11721691_x_at) / Fold change /veh CYB561 (11721691_x_at) / RFU ANKRD19P (11752326_a_at) / Fold change /veh ANKRD19P (11752326_a_at) / RFU OR2T12 /// OR2T33 /// OR2T8 (11738714_s_at) / Fold change /veh OR2T12 /// OR2T33 /// OR2T8 (11738714_s_at) / RFU VCAN (11748164_a_at) / Fold change /veh VCAN (11748164_a_at) / RFU JSRP1 (11732532_at) / Fold change /veh JSRP1 (11732532_at) / RFU KRTAP10-11 (11738290_x_at) / Fold change /veh KRTAP10-11 (11738290_x_at) / RFU MYO3A (11730013_a_at) / Fold change /veh MYO3A (11730013_a_at) / RFU EBF3 (11725865_a_at) / Fold change /veh EBF3 (11725865_a_at) / RFU CAMK2N1 (11719241_x_at) / Fold change /veh CAMK2N1 (11719241_x_at) / RFU C5orf56 (11738088_a_at) / Fold change /veh C5orf56 (11738088_a_at) / RFU OLFML3 (11715873_a_at) / Fold change /veh OLFML3 (11715873_a_at) / RFU LOC100653217 /// NTM (11731650_a_at) / Fold change /veh LOC100653217 /// NTM (11731650_a_at) / RFU MAPK11 (11762145_a_at) / Fold change /veh MAPK11 (11762145_a_at) / RFU FIZ1 (11724087_x_at) / Fold change /veh FIZ1 (11724087_x_at) / RFU OASL (11726364_x_at) / Fold change /veh OASL (11726364_x_at) / RFU SOX15 (11748057_x_at) / Fold change /veh SOX15 (11748057_x_at) / RFU CD79A (11719716_a_at) / Fold change /veh CD79A (11719716_a_at) / RFU HIST1H1D (11736915_at) / Fold change /veh HIST1H1D (11736915_at) / RFU CASKIN2 (11723855_a_at) / Fold change /veh CASKIN2 (11723855_a_at) / RFU LOC730098 (11760151_x_at) / Fold change /veh LOC730098 (11760151_x_at) / RFU OR4N2 (11742367_at) / Fold change /veh OR4N2 (11742367_at) / RFU PRRT2 (11749266_a_at) / Fold change /veh PRRT2 (11749266_a_at) / RFU SNX32 (11753110_a_at) / Fold change /veh SNX32 (11753110_a_at) / RFU CDHR5 (11726645_a_at) / Fold change /veh CDHR5 (11726645_a_at) / RFU RCAN1 (11760418_a_at) / Fold change /veh RCAN1 (11760418_a_at) / RFU FAM167A (11723789_a_at) / Fold change /veh FAM167A (11723789_a_at) / RFU FAM26E (11764081_at) / Fold change /veh FAM26E (11764081_at) / RFU ISYNA1 (11749810_s_at) / Fold change /veh ISYNA1 (11749810_s_at) / RFU ACY1 (11761880_at) / Fold change /veh ACY1 (11761880_at) / RFU 11764098_at / Fold change /veh 11764098_at / RFU SAMD14 (11745864_x_at) / Fold change /veh SAMD14 (11745864_x_at) / RFU NPB (11741838_a_at) / Fold change /veh NPB (11741838_a_at) / RFU TMPRSS6 (11731388_a_at) / Fold change /veh TMPRSS6 (11731388_a_at) / RFU KRTAP10-2 (11738614_at) / Fold change /veh KRTAP10-2 (11738614_at) / RFU ARHGAP8 /// PRR5-ARHGAP8 (11727945_x_at) / Fold change /veh ARHGAP8 /// PRR5-ARHGAP8 (11727945_x_at) / RFU KRTAP5-7 /// NADSYN1 (11734609_at) / Fold change /veh KRTAP5-7 /// NADSYN1 (11734609_at) / RFU RASL12 (11751679_a_at) / Fold change /veh RASL12 (11751679_a_at) / RFU CDKN2B (11736163_a_at) / Fold change /veh CDKN2B (11736163_a_at) / RFU PRF1 (11729649_at) / Fold change /veh PRF1 (11729649_at) / RFU, ZNF638 /// ZNF638-IT1 / Fold change vs veh, ZNF638 /// ZNF638-IT1 / RFU, PANK3 / Fold change vs veh, PANK3 / RFU, SH3YL1 / Fold change vs veh, SH3YL1 / RFU, ZEB2 / Fold change vs veh, ZEB2 / RFU, NRIP1 / Fold change vs veh, NRIP1 / RFU, PTTG1IP / Fold change vs veh, PTTG1IP / RFU, CAPN2 / Fold change vs veh, CAPN2 / RFU, MED14 / Fold change vs veh, MED14 / RFU, SNORA58 / Fold change vs veh, SNORA58 / RFU, C1orf63 / Fold change vs veh, C1orf63 / RFU, LRRFIP1 / Fold change vs veh, LRRFIP1 / RFU, NDUFAF7 / Fold change vs veh, NDUFAF7 / RFU, SLC12A2 / Fold change vs veh, SLC12A2 / RFU, IBTK / Fold change vs veh, IBTK / RFU, ESF1 / Fold change vs veh, ESF1 / Fold change vs veh, TMEM50B / RFU, TAOK1 / Fold change vs veh, TAOK1 / RFU, ACBD3 / Fold change vs veh, ACBD3 / RFU, TMA16 / Fold change vs veh, TMA16 / RFU, RWDD3 / Fold change vs veh, RWDD3 / RFU, BCAT1 / Fold change vs veh, BCAT1 / RFU, EDEM3 / Fold change vs veh, EDEM3 / RFU, TMEM33 / Fold change vs veh, TMEM33 / RFU, WDR75 / Fold change vs veh, WDR75 / RFU, AHCTF1 / Fold change vs veh, AHCTF1 / RFU, TFRC / Fold change vs veh, TFRC / RFU, ZDHHC17 / Fold change vs veh, ZDHHC17 / RFU, NOM1 / Fold change vs veh, NOM1 / RFU, ARL8B / Fold change vs veh, ARL8B / RFU, ZBTB11 / Fold change vs veh, ZBTB11 / RFU, TAMM41 / Fold change vs veh, TAMM41 / RFU, KIAA1704 /// LOC100996395 / Fold change vs veh, KIAA1704 /// LOC100996395 / RFU, ING1 / Fold change vs veh, ING1 / RFU, TRMT61B / Fold change vs veh, TRMT61B / RFU, FUBP3 / Fold change vs veh, FUBP3 / RFU, TP53 / Fold change vs veh, TP53 / RFU, TNKS2 / Fold change vs veh, TNKS2 / RFU, ZFP14 / Fold change vs veh, ZFP14 / RFU, ACTR2 / Fold change vs veh, ACTR2 / RFU, PPP3R1 / Fold change vs veh, PPP3R1 / RFU, PIK3R1 / Fold change vs veh, PIK3R1 / RFU, HNRNPA1 / Fold change vs veh, HNRNPA1 / RFU, RNF170 / Fold change vs veh, RNF170 / RFU, ZNF28 / Fold change vs veh, ZNF28 / RFU, RNGTT / Fold change vs veh, RNGTT / RFU, OGT / Fold change vs veh, OGT / RFU, BRD1 / Fold change vs veh, BRD1 / RFU, MARS / Fold change vs veh, MARS / RFU, ZNF655 / Fold change vs veh, ZNF655 / RFU, FAHD1 / Fold change vs veh, FAHD1 / RFU, BDP1 / Fold change vs veh, BDP1 / RFU, LRRCC1 / Fold change vs veh, LRRCC1 / RFU, ARID1A / Fold change vs veh, ARID1A / RFU, ZNF146 / Fold change vs veh, ZNF146 / RFU, ZNF330 / Fold change vs veh, ZNF330 / RFU, GPN3 / Fold change vs veh, GPN3 / RFU, C9orf123 / Fold change vs veh, C9orf123 / RFU, N4BP2L2 / Fold change vs veh, N4BP2L2 / RFU, ARFIP1 / Fold change vs veh, ARFIP1 / RFU, FAM179B / Fold change vs veh, FAM179B / RFU, BCL10 / Fold change vs veh, BCL10 / RFU, UHRF1BP1L / Fold change vs veh, UHRF1BP1L / RFU, BET1 / Fold change vs veh, BET1 / RFU, CNOT2 / Fold change vs veh, CNOT2 / RFU, ZNF268 / Fold change vs veh, ZNF268 / Fold change vs veh, ZNF507 / RFU, DGCR2 / Fold change vs veh, DGCR2 / RFU, WDSUB1 / Fold change vs veh, WDSUB1 / Fold change vs veh, HSP90B1 /// MIR3652 / RFU, ADSS / Fold change vs veh, ADSS / RFU, GK / Fold change vs veh, GK / RFU, ZNF148 / Fold change vs veh, ZNF148 / RFU, TAF9 / Fold change vs veh, TAF9 / RFU, SLC1A5 / Fold change vs veh, SLC1A5 / RFU, SLMO2 / Fold change vs veh, SLMO2 / RFU, ABCC4 / Fold change vs veh, ABCC4 / RFU, LOC101060439 /// RAP1B / Fold change vs veh, LOC101060439 /// RAP1B / RFU, RFX7 / Fold change vs veh, RFX7 / RFU, GTPBP10 / Fold change vs veh, GTPBP10 / RFU, CNEP1R1 / Fold change vs veh, CNEP1R1 / RFU, BIVM-ERCC5 /// ERCC5 / Fold change vs veh, BIVM-ERCC5 /// ERCC5 / RFU, ILF3 / Fold change vs veh, ILF3 / RFU 11762660_at / Fold change /veh 11762660_at / RFU VCAN (11757783_s_at) / Fold change /veh VCAN (11757783_s_at) / RFU DDX43 (11728927_at) / Fold change /veh DDX43 (11728927_at) / RFU KRT8 (11758188_x_at) / Fold change /veh KRT8 (11758188_x_at) / RFU NKD1 (11759106_at) / Fold change /veh NKD1 (11759106_at) / RFU SRD5A1 (11742802_a_at) / Fold change /veh SRD5A1 (11742802_a_at) / RFU TPSAB1 /// TPSB2 (11721975_s_at) / Fold change /veh TPSAB1 /// TPSB2 (11721975_s_at) / RFU GSTM3 (11746129_a_at) / Fold change /veh GSTM3 (11746129_a_at) / RFU IL23R (11737362_x_at) / Fold change /veh IL23R (11737362_x_at) / RFU TMEM51 (11727254_a_at) / Fold change /veh TMEM51 (11727254_a_at) / RFU PIWIL2 (11732686_x_at) / Fold change /veh PIWIL2 (11732686_x_at) / RFU ORM1 (11744905_x_at) / Fold change /veh ORM1 (11744905_x_at) / RFU CCDC152 (11743942_at) / Fold change /veh CCDC152 (11743942_at) / RFU ECM1 (11717891_a_at) / Fold change /veh ECM1 (11717891_a_at) / RFU IL23R (11748794_a_at) / Fold change /veh IL23R (11748794_a_at) / RFU TNFAIP8L3 (11732012_x_at) / Fold change /veh TNFAIP8L3 (11732012_x_at) / RFU MBOAT4 (11741988_at) / Fold change /veh MBOAT4 (11741988_at) / RFU 11764193_at / Fold change /veh 11764193_at / RFU TMEM53 (11763286_at) / Fold change /veh TMEM53 (11763286_at) / RFU MAGEB2 (11727129_at) / Fold change /veh MAGEB2 (11727129_at) / RFU TMEM200A (11744735_a_at) / Fold change /veh TMEM200A (11744735_a_at) / RFU CCDC152 (11751479_a_at) / Fold change /veh CCDC152 (11751479_a_at) / RFU FAM211A (11726209_a_at) / Fold change /veh FAM211A (11726209_a_at) / RFU RGS16 (11746705_a_at) / Fold change /veh RGS16 (11746705_a_at) / RFU VCAN (11755009_s_at) / Fold change /veh VCAN (11755009_s_at) / RFU RHOB (11743442_s_at) / Fold change /veh RHOB (11743442_s_at) / RFU RGS16 (11720943_a_at) / Fold change /veh RGS16 (11720943_a_at) / RFU RGS16 (11720944_at) / Fold change /veh RGS16 (11720944_at) / RFU, VPS4B / Fold change vs veh, VPS4B / RFU, CREB1 / Fold change vs veh, CREB1 / RFU, DNAJC13 / Fold change vs veh, DNAJC13 / RFU, GNAQ / Fold change vs veh, GNAQ / RFU, CDK5R1 / Fold change vs veh, CDK5R1 / RFU, ZRANB3 / Fold change vs veh, ZRANB3 / RFU, CUL4A / Fold change vs veh, CUL4A / RFU, CCNY / Fold change vs veh, CCNY / RFU, UFL1 / Fold change vs veh, UFL1 / RFU, COG3 / Fold change vs veh, COG3 / RFU, DIAPH2 / Fold change vs veh, DIAPH2 / RFU, SKA2 / Fold change vs veh, SKA2 / RFU, AFF3 / Fold change vs veh, AFF3 / RFU, LMF1 / Fold change vs veh, LMF1 / RFU, IPO11 / Fold change vs veh, IPO11 / RFU, DFFB / Fold change vs veh, DFFB / RFU, FOXP1 / Fold change vs veh, FOXP1 / RFU, CARD8 / Fold change vs veh, CARD8 / RFU, STRN3 / Fold change vs veh, STRN3 / RFU, ADK / Fold change vs veh, ADK / RFU, RASSF2 / Fold change vs veh, RASSF2 / RFU, WIPF1 / Fold change vs veh, WIPF1 / RFU, LARP1B / Fold change vs veh, LARP1B / RFU, RASA1 / Fold change vs veh, RASA1 / RFU, RB1 / Fold change vs veh, RB1 / RFU, PPFIA1 / Fold change vs veh, PPFIA1 / RFU, MAT2A / Fold change vs veh, MAT2A / RFU, CCT5 / Fold change vs veh, CCT5 / RFU, WDR92 / Fold change vs veh, WDR92 / RFU, CUX1 / Fold change vs veh, CUX1 / RFU, TTC7A / Fold change vs veh, TTC7A / RFU, TMEM135 / Fold change vs veh, TMEM135 / RFU, DEPTOR / Fold change vs veh, DEPTOR / RFU, CPM / Fold change vs veh, CPM / RFU, DNAJB6 / Fold change vs veh, DNAJB6 / RFU, CACNA2D3 / Fold change vs veh, CACNA2D3 / RFU, DTX4 / Fold change vs veh, DTX4 / RFU, TFCP2 / Fold change vs veh, TFCP2 / RFU, GMCL1 /// GMCL1P1 / Fold change vs veh, GMCL1 /// GMCL1P1 / RFU, AEBP2 / Fold change vs veh, AEBP2 / RFU, SNHG1 /// SNORD22 /// SNORD25 /// SNORD26 /// SNORD27 /// SNORD28 /// SNORD29 /// SNORD31 / Fold change vs veh, SNHG1 /// SNORD22 /// SNORD25 /// SNORD26 /// SNORD27 /// SNORD28 /// SNORD29 /// SNORD31 / Fold change (Aza/veh), C12orf56 (ProbeSet 11735607_a_at) / Fold change (ACY-1035/veh), C12orf56 (ProbeSet 11735607_a_at) / Fold change (Aza/veh), FGFR1OP (ProbeSet 11751329_s_at) / Fold change (ACY-1035/veh), FGFR1OP (ProbeSet 11751329_s_at) / Fold change (Aza/veh), VPS36 (ProbeSet 11739960_a_at) / Fold change (ACY-1035/veh), VPS36 (ProbeSet 11739960_a_at) / RFU SYPL1 (11715823_x_at) / Fold change /veh SYPL1 (11715823_x_at) / RFU IGFBP7 (11715501_s_at) / Fold change /veh IGFBP7 (11715501_s_at) / RFU REEP3 (11722064_at) / Fold change /veh REEP3 (11722064_at) / RFU IGLL1 (11728026_x_at) / Fold change /veh IGLL1 (11728026_x_at): dose or concentration left out as unconfirmed
Conditions: MV-4-11 cells, 48 hours

Nc1ncn([C@@H]2O[C@H](CO)[C@@H](O)[C@H]2O)c(=O)n1 [azacitidine]
Fold change /veh C10orf10 (11716522_x_at): 1.15
